# Assay results as given in patent publication US20090137549A1, “Novel compounds useful for the treatment of degenerative & inflamatory diseases” (priority 2006, published 2009).
# Structures can show the parent of a compound that is named as a salt.
# How the values were obtained:
# PDE1A [1] = target: T1, PDE1A (Homo sapiens, UniProt P54750); assay: PDE1A dose response, Cyclic Nucleotide Phosphodiesterase Assay Kit from Biomol (colorimetric); format: biochemical; conditions: purified PDE1A enzyme, 100 μM cAMP
# Method in brief: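 Purified PDE1A hydrolysed 100 μM cAMP with 5′-nucleotidase in Tris 20 mM pH 7.4 with calmodulin, Ca2+, Mg2+, 45 min at 37° C. Released phosphate read by malachite-green absorbance at 615 nm. Duplicate 8-point 1/3 dilutions from 20 μM, 1% DMSO; 10 μM vardenafil defined 100% inhibition.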
# PDE1A [2] = target: T1, PDE1A; assay: PDE1A primary screening, cAMP dynamic HTRF kit from Cisbio; format: biochemical; conditions: control compounds of the primary screening, 100 nM cAMP
# Text: For the primary screening an assay using the cAMP dynamic HTRF® kit from Cisbio (catnr 62AM2PEB) is used. Its principle is based on HTRF® technology (Homogeneous Time-Resolved Fluorescence). The method is a competitive immunoassay between native cAMP and the cAMP labeled with XL665. The tracer binding is visualized by a monoclonal antibody against cAMP, labeled with Cryptate. The specific signal (i.e. energy transfer) is inversely proportional to the concentration of cAMP in the sample (see FIG. 1).
# For the enzymatic reaction, a mixture is made of 20 μL with purified PDE1A enzyme, 100 nM cAMP and the compound (10 μM in a final concentration of 1% DMSO) in a black 384-plate. The reaction buffer is Tris 20 mM pH 7.4, 4 μg/mLl calmodulin, 3 mM MgCl2, 1.5 mM CaCl2, 0.2 mg/mL BSA and 0.001% Brij-35®. After an incubation of 30 minutes at room temperature, the reaction is stopped by the addition of 10 μL labelled cAMP-XL665 and 10 μL anti-cAMP-Cryptate. After 1 hour incubation at room temperature, the readout is performed on the Envision (excitation 360 nm; emission donor 615 nm; emission acceptor 665 nm).
# PDE1A hydrolyses cAMP into 5′AMP; this low cAMP concentration will result in a high signal. A PDE1A inhibitor will result in a decrease of the signal. […]
IC50 (PDE1A [1]) [nM],Compound,further results
1 to 100,"CC(C)N1CCN(c2ccc(-c3csc(N4CC(c5nc6c(cnn6C6CCCCC6)c(=O)[nH]5)C4)n3)cc2)CC1 [Example 161, 1-Cyclohexyl-6-(1-(4-(4-(4-isopropylpiperazin-1-yl)phenyl)thiazol-2-yl)azetidin-3-yl)-1H-pyrazolo[3,4-d]pyrimidin-4-(5H)-one]",–
1 to 100,"CC(C)(C)n1ncc2c(=O)[nH]c(C3CN(c4ccc(CN5CCOCC5)cc4)C3)nc21 [Example 164, 1-tert-Butyl-6-[1-(4-morpholin-4-ylmethyl-phenyl)-azetidin-3-yl]-1,5-dihydro-pyrazolo[3,4-d]pyrimidin-4-one]",–
101 to 500,"COc1ccc(N2CC(c3nc4c(cnn4C4CCCCC4)c(=O)[nH]3)C2)cc1 [Example 165, 1-cyclohexyl-6-(1-(4-methoxyphenyl)azetidin-3-yl)-1H-pyrazolo[3,4-d]pyrimidin-4(5H)-one]",–
101 to 500,"COc1cccc(N2CC(c3nc4c(cnn4C4CCCCC4)c(=O)[nH]3)C2)c1 [Example 166, 1-cyclohexyl-6-(1-(3-methoxyphenyl)azetidin-3-yl)-1H-pyrazolo[3,4-d]pyrimidin-4(5H)-one]",–
101 to 500,"CC(=O)Nc1ccc(N2CC(c3nc4c(cnn4C4CCCCC4)c(=O)[nH]3)C2)cc1 [Example 167, N-(4-(3-(1-cyclohexyl-4-oxo-4,5-dihydro-1H-pyrazolo[3,4-d]pyrimidin-6-yl)azetidin-1-yl)phenyl)acetamide]",–
501 to 1000,"O=c1[nH]c(C2CN(Cc3nc4ccccc4s3)C2)nc2c1cnn2C1CCCCC1 [Example 172, 6-(1-(Benzo[d]thiazol-2-ylmethyl)azetidin-3-yl)-1-cyclohexyl-1H-pyrazolo[3,4-d]pyrimidin-4(5H)-one]",–
101 to 500,"CC(C)(C)n1ncc2c(=O)[nH]c(C3CN(CC(=O)c4ccccc4)C3)nc21 [Example 174, 1-tert-Butyl-6-(1-(2-oxo-2-phenylethyl)azetidin-3-yl)-1H-pyrazolo[3,4-d]pyrimidin-4(5H)-one]",–
1000 to 1500,"CC(C)(C)n1ncc2c(=O)[nH]c(C3CN(Cc4nc5ccccc5[nH]4)C3)nc21 [Example 175, 6-(1-((1H-Benzo[d]imidazol-2-yl)methyl)azetidin-3-yl)-1-tert-butyl-1H-pyrazolo[3,4-d]pyrimidin-4(5H)-one]",–
1 to 100,"N#C/N=C(/Nc1ccc(F)cc1)N1CC(c2nc3c(cnn3C3CCCCC3)c(=O)[nH]2)C1 [Example 177, N′-Cyano-3-(1-cyclohexyl-4-oxo-4,5-dihydro-1H-pyrazolo[3,4-d]pyrimidin-6-yl)-N-(4-fluorophenyl)azetidine-1-carboximidamide]",–
1 to 100,"N#C/N=C(/NCC1CCCCC1)N1CC(c2nc3c(cnn3C3CCCCC3)c(=O)[nH]2)C1 [Example 178, N′-Cyano-3-(1-cyclohexyl-4-oxo-4,5-dihydro-1H-pyrazolo[3,4-d]pyrimidin-6-yl)-N-(cyclohexylmethyl)azetidine-1-carboximidamide]",–
1 to 100,"CC(C)(C)n1ncc2c(=O)[nH]c(C3CN(/C(=N\C#N)Nc4ccc(F)cc4)C3)nc21 [Example 179, 3-(1-tert-Butyl-4-oxo-4,5-dihydro-1H-pyrazolo[3,4-d]pyrimidin-6-yl)-N′-cyano-N-(4-fluorophenyl)azetidine-1-carboximidamide]",–
501 to 1000,"O=C(NC1CCCNC1)N1CC(c2nc3c(cnn3C3CCCCC3)c(=O)[nH]2)C1 (centres unmarked) [Example 182, 3-(1-Cyclohexyl-4-oxo-4,5-dihydro-1H-pyrazolo[3,4-d]pyrimidin-6-yl)-azetidine-1-carboxylic acid piperidin-3-ylamide trifluoroacetate]",–
501 to 1000,"CC(C)N1CCC(CNC(=O)N2CC(c3nc4c(cnn4C4CCCCC4)c(=O)[nH]3)C2)CC1 [Example 184, 3-(1-Cyclohexyl-4-oxo-4,5-dihydro-1H-pyrazolo[3,4-d]pyrimidin-6-yl)-N-((1-isopropylpiperidin-4-yl)methyl)azetidine-1-carboxamide]",–

# More lines, now with the values behind:
Compound,IC50 (PDE1A [1]) [nM],further results
"O=c1[nH]c(C2CN(c3nc(-c4ccccc4)c(CN4CCOCC4)s3)C2)nc2c1cnn2C1CCCCC1 [Example 162, 1-Cyclohexyl-6-(1-(5-morpholin-4-ylmethyl-4-phenylthiazol-2-yl)azetidin-3-yl)-1H-pyrazolo[3,4-d]pyrimidin-4-(5H)-one]",1 to 100,–
"CC(C)(C)n1ncc2c(=O)[nH]c(C3CN(c4ccccn4)C3)nc21 [Example 163, 1-tert-Butyl-6-(1-pyridin-2-yl-azetidin-3-yl)-1,5-dihydro-pyrazolo[3,4-d]pyrimidin-4-one]",101 to 500,–
"O=c1[nH]c(C2CN(c3ccccc3)C2)nc2c1cnn2C1CCCCC1 [Example 168, 1-cyclohexyl-6-(1-phenylazetidin-3-yl)-1H-pyrazolo[3,4-d]pyrimidin-4(5H)-one]",101 to 500,–
"COc1ccccc1N1CC(c2nc3c(cnn3C3CCCCC3)c(=O)[nH]2)C1 [Example 169, 1-cyclohexyl-6-(1-(2-methoxyphenyl)azetidin-3-yl)-1H-pyrazolo[3,4-d]pyrimidin-4(5H)-one]",101 to 500,–
"Cc1nn(C2CCCCC2)c2nc(C3CN(C(=O)N(C)Cc4ccc(F)cc4)C3)[nH]c(=O)c12 [Example 170, 3-(1-Cyclohexyl-3-methyl-4-oxo-4,5-dihydro-1H-pyrazolo[3,4-d]pyrimidin-6-yl)-N-(4-fluorobenzyl)-N-methylazetidine-1-carboxamide]",101 to 500,–
"Cn1c(CN2CC(c3nc4c(cnn4C(C)(C)C)c(=O)[nH]3)C2)nc2ccccc21 [Example 171, 1-tert-Butyl-6-(1-((1-methyl-1H-benzo[d]imidazol-2-yl)methyl)azetidin-3-yl)-1H-pyrazolo[3,4-d]pyrimidin-4(5H)-one]",501 to 1000,–
"CC(C)(C)n1ncc2c(=O)[nH]c(C3CN(CC(=O)Nc4ccccc4)C3)nc21 [Example 173, 2-(3-(1-tert-Butyl-4-oxo-4,5-dihydro-1H-pyrazolo[3,4-d]pyrimidin-6-yl)azetidin-1-yl)-N-phenylacetamide]",101 to 500,–
"O=c1[nH]c(C2CCCN(Cc3ccccc3)C2)nc2c1cnn2C1CCCCC1 (centres unmarked) [Example 176, 6-(1-Benzylpiperidin-3-yl)-1-cyclohexyl-1H-pyrazolo[3,4-d]pyrimidin-4(5H)-one]",1000 to 1500,–
"O=c1[nH]c(C2CN(/C(=C\[N+](=O)[O-])NCC3CCCCC3)C2)nc2c1cnn2C1CCCCC1 [Example 180, 1-Cyclohexyl-6-(1-(1-(cyclohexylmethylamino)-2-nitrovinyl)azetidin-3-yl)-1H=pyrazolo[3,4-d]pyrimidin-4(5H)-one]",101 to 500,–
"Cc1nn(C2CCCCC2)c2nc(C3CCCN(C(=O)c4ccccc4NS(C)(=O)=O)C3)[nH]c(=O)c12 (centres unmarked) [Example 181, N-{2-[3-(1-Cyclohexyl-3-methyl-4-oxo-4,5-dihydro-1H-pyrazolo[3,4-d]pyrimidin-6-yl)-piperidine-1-carbonyl]phenyl}-methanesulfonamide]",501 to 1000,–
"CC(C)N1CCCC(NC(=O)N2CC(c3nc4c(cnn4C4CCCCC4)c(=O)[nH]3)C2)C1 (centres unmarked) [Example 183, 3-(1-Cyclohexyl-4-oxo-4,5-dihydro-1H-pyrazolo[3,4-d]pyrimidin-6-yl)-azetidine-1-carboxylic acid (1-isopropyl-piperidin-3-yl)-amide]",101 to 500,–
CCCCOc1cc(CC2CNC(=O)N2)ccc1OC (centres unmarked) [Ro-20-1724],–,inhibition (PDE1A [2]; 10 μM): 0%
CCCOc1ccccc1-c1nc2nn[nH]c2c(=O)[nH]1 [Zaprinast],–,inhibition at 10 µM (PDE1A [2]): ~50%
